Assay results: patent publication US20050065194A1, “Methods of treating conditions associated with an Edg-2 receptor” (priority 2003, published 2005)

Assays:
Edg-2 receptor = target: T1, Edg-2 receptor (Homo sapiens, UniProt Q92633); assay: LPA/S1P-stimulated calcium mobilization assay (FLIPR), HTC cells expressing Edg 2; format: cell-based; settings: for inhibition of the Edg 2 receptor: FIG. 1 / FIG. 2; for IC50: HTC cells expressing Edg 2; for Fold Selective: selectivity for Edg-2 relative to other Edg receptors
T1 construct: expressed in transfected cells
From the text: Specific assays for Edg-2 receptor activity are known to those of skill in the art. For example, cells expressing Edg-2 receptors can be contacted with a membrane-permeant calcium sensitive dye such as Fluo-4 AM or a proprietary calcium dye loading kit (e.g., FLIPR Calcium Assay kit, Molecular Devices, Sunnyvale, Calif.). Intracellular calcium is capable of binding to the dye and emitting fluorescent radiation when illuminated at the appropriate wavelength. The cells can thus be illuminated an appropriate wavelength for the dye and any emitting light can be captured by a cooled CCD camera. Changes in fluorescence indicate changes in intracellular calcium resulting from the activation of an Edg-2 receptor. Such changes can be measured advantageously in whole cells in “real-time” (Berridge et al., Nature Reviews 2000, 1:11-21).
LPA receptors such as Edg-2, couple to calcium effector pathways, and result in increases in intracellular calcium following receptor activation (An, 1998, J. Cell. Biochem. Supp., 30-31: 147-157). This biological response lends itself to a very efficient, high-throughput screen using a Fluorescence Imaging Plate Reader (FLIPR; Molecular Devices, Sunnyvale, Calif.). The FLIPR system is a real-time, cell-based assay system with continuous fluorescence detection using a cooled CCD camera. The FLIPR system was used to developing an Edg-2 receptor screen. Rat hepatoma cells stably expressing Edg-2 receptor were plated on 384-well plates and loaded with a calcium dye loading kit (Molecular Devices, Sunnyvale, Calif.) for 1 hour at room temperature. Cells were then placed on the FLIPR^384 (Molecular Devices, Sunnyvale, Calif.) and excited by an argon laser at 488 nm. The data for the entire 384-well plate was updated every second. An integrated robotic pipettor allowed for simultaneous compound addition into each individual well in the plate.

Edg 1 receptor = target: T2, Edg 1 receptor (Homo sapiens, UniProt P21453); assay: LPA/S1P-stimulated calcium mobilization assay (FLIPR), HTC cells expressing Edg 1; format: cell-based; settings: for inhibition of S1P-stimulated calcium increases: FIG. 1 / FIG. 2
T2 construct: expressed in transfected cells; host or cells: HTC (rat hepatoma) cells

Edg-4 receptor = target: T3, Edg-4 receptor (Homo sapiens, UniProt Q9HBW0); assay: LPA/S1P-stimulated calcium mobilization assay (FLIPR), HTC cells expressing Edg 4; format: cell-based; settings: for inhibition of LPA-stimulated calcium increases: FIG. 1 / FIG. 2
T3 construct: expressed in transfected cells; host or cells: HTC (rat hepatoma) cells

Edg 8 receptor = target: T4, Edg 8 receptor (Homo sapiens, UniProt Q9H228); assay: LPA/S1P-stimulated calcium mobilization assay (FLIPR), HTC cells expressing Edg 8; format: cell-based; settings: for inhibition of S1P-stimulated calcium increases: FIG. 1 / FIG. 2
T4 construct: expressed in transfected cells; host or cells: HTC (rat hepatoma) cells

Edg-7 receptor = target: T5, Edg-7 receptor (Homo sapiens, UniProt Q9UBY5); assay: LPA/S1P-stimulated calcium mobilization assay (FLIPR), HTC cells expressing Edg 7; format: cell-based; settings: for inhibition of LPA-stimulated calcium increases: FIG. 1 / FIG. 2
T5 construct: expressed in transfected cells; host or cells: HTC (rat hepatoma) cells
T5 sequence (Q9UBY5 1-353): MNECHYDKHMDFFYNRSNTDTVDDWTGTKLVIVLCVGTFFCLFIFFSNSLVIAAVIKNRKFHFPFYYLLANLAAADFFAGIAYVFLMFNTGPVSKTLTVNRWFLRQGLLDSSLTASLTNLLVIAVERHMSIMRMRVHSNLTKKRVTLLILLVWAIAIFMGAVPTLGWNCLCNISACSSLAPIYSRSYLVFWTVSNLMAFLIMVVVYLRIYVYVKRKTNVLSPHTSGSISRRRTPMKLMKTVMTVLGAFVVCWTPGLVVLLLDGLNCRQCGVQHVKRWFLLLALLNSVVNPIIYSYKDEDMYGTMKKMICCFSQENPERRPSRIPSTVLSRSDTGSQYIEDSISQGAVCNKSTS

Edg 5 receptor = target: T6, Edg 5 receptor (Homo sapiens, UniProt O95136); assay: LPA/S1P-stimulated calcium mobilization assay (FLIPR), HTC cells expressing Edg 5; format: cell-based; settings: for inhibition of S1P-stimulated calcium increases: FIG. 1 / FIG. 2
T6 construct: expressed in transfected cells; host or cells: HTC (rat hepatoma) cells

Edg 3 receptor = target: T7, Edg 3 receptor (Homo sapiens, UniProt Q99500); assay: LPA/S1P-stimulated calcium mobilization assay (FLIPR), HTC cells expressing Edg 3; format: cell-based; settings: for inhibition of S1P-stimulated calcium increases: FIG. 1 / FIG. 2
T7 construct: expressed in transfected cells; host or cells: HTC (rat hepatoma) cells

[1] = system: immortalized ovarian surface epithelial cells; assay: LPA-stimulated calcium mobilization in immortalized ovarian surface epithelial cells; format: cell-based; settings: 10 μM compound, FIG. 3
[2] = system: various targets tested, including other GPCRs, ion channels, and enzymes; assay: Pharmacology profiling (selectivity assays), panel of non-Edg targets of Table 2; format: binding; settings: all targets listed in Table 2 (bradykinin, CB2, chemokine, dopamine, histamine, muscarinic, NPY, opiate, prostanoid, purinergic, serotonin, sigma, sodium channel, tachykinin, growth factors etc.)
[3] = system: forskolin-stimulated cAMP production; assay: cAMP assay: LPA inhibition of forskolin-stimulated cAMP production; format: cell-based; settings: FIG. 4
From the text: Because cAMP acts a second messenger in cell signaling, activating protein kinases that in turn phosphorylate enzymes and transcription factors, cAMP concentration is frequently indicative of the activation state of downstream signaling pathways. For GPCRs like the Edg receptors, coupling via a Gαi pathway results in inhibition of adenylyl cyclase activity, the key enzyme involved in breakdown of ATP and formation of cAMP. Thus, assays can be designed to measure inhibition of adenylyl cyclase activity, by first stimulating cAMP formation. One example of a compound, which stimulates cAMP formation is forskolin. Forskolin bypasses the receptor and directly activates adenylyl cyclase. […]
This assay can be performed by any means known to one of skill in the art. […] Following an incubation period, the cells are lysed and the level of cAMP is determined.
The cAMP assay can be performed by any means known to one of skill in the art, for example, by performing a competitive immunoassay. […] Detection can be performed by any appropriate means, including, but not limited to, using a substrate solution and chemiluminescent readout.
Cells were plated in a 96 well format. […] Following a 30-minute incubation period, the cells were lysed and the level of cAMP was determined. […]
Detection was performed using a substrate solution and chemiluminescent readout. […]

Histamine H1, Central = Histamine H1, Central (Cavia porcellus, UniProt P31389); settings: significance criteria ≧50% of max stimulation or inhibition; Table 2
Experimental: (§1) In order to test the selectivity of compounds, various radioligand binding assays were performed using numerous non-Edg receptor targets as listed below.
(§2) A radioligand binding assay was performed using adrenergic α1 according to the method of Greengrass and Bremner 1979, Eur. J. Pharmacol. 55:323-326. A radioligand binding assay was performed using adrenergic α2 according to the method of Boyajian and Leslie, 1987, J. Pharmacol. Exp. Ther. 241:1092-1098. A radioligand binding assay was performed using adrenergic β according to the method of Feve et al., 1994, Proc. Natl. Acad. Sci USA 91:5677-5681. A radioligand binding assay was performed using angiotensin AT2 according to the method of Whitebread et al., 1991, Biochem. Biophys. Res. Comm. 181:1365-1371. A radioligand binding assay was performed using calcium channel Type L, dihydropyridine according to the method of Ehlert et al., 1982, Life Sci. 30:2191-2202. A radioligand binding assay was performed using dopamine D2L according to the method of Bunzo et al., 1988, Nature 336:783-787. A radioligand binding assay was performed using endothelin ETA according to the method of Mihara et al., 1994, J. Pharmacol. Exp Ther. 268:1122-1127. A radioligand binding assay was performed using histamine H1 Central according to the method of Hill et al., 1978, J. Neurochem. 31:997-1004. A radioligand binding assay was performed using Muscarinic non-selective, Central according to the method of Luthin and Wolfe, 1984, J. Pharmacol. Exp. Ther. 228:648-655. A radioligand binding assay was performed using serotonin 5-HT1, non-selective according to the method of Middlemiss, 1984, Eur. J. Pharmacol. 101:289-293).

[4] = system: Calcium Channel Type L, Dihydropyridine; settings: significance criteria ≧50% of max stimulation or inhibition; Table 2
Experimental: as §1, §2

Dopamine D2L = Dopamine D2L (Homo sapiens, UniProt P14416); settings: significance criteria ≧50% of max stimulation or inhibition; Table 2
Experimental: as §1, §2

[5] = system: Serotonin 5-HT1, non-selective; settings: significance criteria ≧50% of max stimulation or inhibition; Table 2
Experimental: as §1, §2

Adrenergic β = settings: significance criteria ≧50% of max stimulation or inhibition; Table 2
Experimental: as §1, §2

[6] = system: Adrenergic α1, non-selective; settings: significance criteria ≧50% of max stimulation or inhibition; Table 2
Experimental: as §1, §2

[7] = system: Muscarinic non-selective, Central; settings: significance criteria ≧50% of max stimulation or inhibition; Table 2
Experimental: as §1, §2

Angiotensin AT2 = Angiotensin AT2 (Homo sapiens, UniProt P50052); settings: significance criteria ≧50% of max stimulation or inhibition; Table 2
Experimental: as §1, §2

Adrenergic α2 = settings: significance criteria ≧50% of max stimulation or inhibition; Table 2
Experimental: as §1, §2

Endothelin ETA = Endothelin ETA (Homo sapiens, UniProt P25101); settings: significance criteria ≧50% of max stimulation or inhibition; Table 2
Experimental: as §1, §2

T7 sequence (Q99500 whole entry): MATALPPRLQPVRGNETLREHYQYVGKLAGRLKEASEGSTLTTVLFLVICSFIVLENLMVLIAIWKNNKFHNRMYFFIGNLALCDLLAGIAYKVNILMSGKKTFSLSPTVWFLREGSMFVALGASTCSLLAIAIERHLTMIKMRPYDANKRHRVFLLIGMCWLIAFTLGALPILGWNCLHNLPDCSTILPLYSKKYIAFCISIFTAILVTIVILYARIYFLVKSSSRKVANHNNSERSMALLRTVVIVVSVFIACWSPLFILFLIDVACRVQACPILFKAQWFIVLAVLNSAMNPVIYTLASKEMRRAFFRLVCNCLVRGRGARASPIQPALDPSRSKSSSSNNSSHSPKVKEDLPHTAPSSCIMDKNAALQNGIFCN
T6 sequence (O95136 whole entry): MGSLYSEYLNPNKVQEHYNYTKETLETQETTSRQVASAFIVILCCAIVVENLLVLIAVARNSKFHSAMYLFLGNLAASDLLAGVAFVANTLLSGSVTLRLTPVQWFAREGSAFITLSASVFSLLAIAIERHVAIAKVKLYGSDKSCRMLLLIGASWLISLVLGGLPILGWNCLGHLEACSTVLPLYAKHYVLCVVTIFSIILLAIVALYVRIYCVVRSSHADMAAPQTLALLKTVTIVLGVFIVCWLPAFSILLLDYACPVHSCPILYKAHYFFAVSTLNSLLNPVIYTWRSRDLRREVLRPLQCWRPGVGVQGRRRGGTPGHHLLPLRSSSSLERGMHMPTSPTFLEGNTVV
T1 sequence (Q92633 whole entry): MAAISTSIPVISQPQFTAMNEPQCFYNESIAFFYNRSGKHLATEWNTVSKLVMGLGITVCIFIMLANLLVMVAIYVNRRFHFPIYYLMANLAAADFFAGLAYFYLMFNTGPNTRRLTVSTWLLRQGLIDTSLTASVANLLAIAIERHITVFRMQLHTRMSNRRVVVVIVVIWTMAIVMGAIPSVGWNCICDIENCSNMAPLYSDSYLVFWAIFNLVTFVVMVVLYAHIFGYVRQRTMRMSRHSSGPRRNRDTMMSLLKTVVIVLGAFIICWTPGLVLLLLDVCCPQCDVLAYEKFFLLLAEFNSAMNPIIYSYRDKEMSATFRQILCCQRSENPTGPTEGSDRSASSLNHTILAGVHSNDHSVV
T2 sequence (P21453 whole entry): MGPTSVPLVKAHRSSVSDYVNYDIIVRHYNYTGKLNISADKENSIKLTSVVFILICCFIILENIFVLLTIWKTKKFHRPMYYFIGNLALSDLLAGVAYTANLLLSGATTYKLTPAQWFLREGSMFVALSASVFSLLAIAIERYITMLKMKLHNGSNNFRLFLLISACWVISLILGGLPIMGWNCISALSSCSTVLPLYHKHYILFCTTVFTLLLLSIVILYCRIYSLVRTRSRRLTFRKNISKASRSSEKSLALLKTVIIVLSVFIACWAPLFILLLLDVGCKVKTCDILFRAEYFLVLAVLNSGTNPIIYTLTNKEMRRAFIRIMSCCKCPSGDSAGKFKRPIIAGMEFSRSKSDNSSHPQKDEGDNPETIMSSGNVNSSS
T4 sequence (Q9H228 whole entry): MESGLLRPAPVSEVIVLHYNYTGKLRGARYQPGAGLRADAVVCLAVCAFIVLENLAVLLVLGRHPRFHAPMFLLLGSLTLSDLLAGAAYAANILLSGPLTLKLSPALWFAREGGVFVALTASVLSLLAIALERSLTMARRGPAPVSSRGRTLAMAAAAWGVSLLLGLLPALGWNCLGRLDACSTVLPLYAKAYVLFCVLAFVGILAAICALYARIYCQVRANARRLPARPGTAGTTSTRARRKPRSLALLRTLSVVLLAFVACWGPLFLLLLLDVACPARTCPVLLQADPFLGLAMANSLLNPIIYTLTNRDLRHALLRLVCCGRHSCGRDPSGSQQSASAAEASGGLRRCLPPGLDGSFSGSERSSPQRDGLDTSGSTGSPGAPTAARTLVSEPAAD
T3 sequence (Q9HBW0 whole entry): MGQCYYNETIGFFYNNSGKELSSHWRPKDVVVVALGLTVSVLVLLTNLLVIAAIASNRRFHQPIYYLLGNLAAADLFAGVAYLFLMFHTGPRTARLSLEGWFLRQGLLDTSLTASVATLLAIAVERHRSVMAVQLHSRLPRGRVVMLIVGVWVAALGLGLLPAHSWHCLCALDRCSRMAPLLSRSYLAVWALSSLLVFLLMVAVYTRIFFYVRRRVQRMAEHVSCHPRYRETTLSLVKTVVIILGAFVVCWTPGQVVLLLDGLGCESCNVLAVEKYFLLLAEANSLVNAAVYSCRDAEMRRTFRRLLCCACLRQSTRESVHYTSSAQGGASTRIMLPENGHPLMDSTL
Histamine H1, Central, sequence (P31389 whole entry): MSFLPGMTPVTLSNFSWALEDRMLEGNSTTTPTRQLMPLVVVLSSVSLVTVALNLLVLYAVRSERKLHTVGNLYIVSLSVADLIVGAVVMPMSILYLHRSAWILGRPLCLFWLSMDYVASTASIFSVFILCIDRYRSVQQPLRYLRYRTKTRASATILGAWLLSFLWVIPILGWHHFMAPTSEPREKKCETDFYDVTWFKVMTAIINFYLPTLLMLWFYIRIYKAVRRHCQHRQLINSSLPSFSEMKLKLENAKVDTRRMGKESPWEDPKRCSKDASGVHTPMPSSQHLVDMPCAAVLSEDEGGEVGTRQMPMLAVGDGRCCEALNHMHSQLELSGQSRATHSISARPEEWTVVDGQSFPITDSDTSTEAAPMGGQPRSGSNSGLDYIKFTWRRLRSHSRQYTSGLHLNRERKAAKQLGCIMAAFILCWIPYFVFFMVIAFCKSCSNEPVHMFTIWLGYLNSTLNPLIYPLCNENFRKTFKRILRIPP
Endothelin ETA, sequence (P25101 21-427): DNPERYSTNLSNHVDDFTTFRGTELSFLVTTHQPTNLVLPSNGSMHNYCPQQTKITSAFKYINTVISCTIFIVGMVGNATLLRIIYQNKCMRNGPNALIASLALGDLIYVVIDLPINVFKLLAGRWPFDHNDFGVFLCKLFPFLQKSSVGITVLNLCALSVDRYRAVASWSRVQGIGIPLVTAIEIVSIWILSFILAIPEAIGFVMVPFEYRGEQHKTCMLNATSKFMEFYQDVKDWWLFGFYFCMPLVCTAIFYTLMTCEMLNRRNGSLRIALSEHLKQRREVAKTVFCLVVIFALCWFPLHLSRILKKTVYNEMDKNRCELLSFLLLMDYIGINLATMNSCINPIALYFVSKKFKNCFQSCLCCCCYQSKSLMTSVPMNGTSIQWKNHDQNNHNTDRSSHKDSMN
Angiotensin AT2, sequence (P50052 whole entry): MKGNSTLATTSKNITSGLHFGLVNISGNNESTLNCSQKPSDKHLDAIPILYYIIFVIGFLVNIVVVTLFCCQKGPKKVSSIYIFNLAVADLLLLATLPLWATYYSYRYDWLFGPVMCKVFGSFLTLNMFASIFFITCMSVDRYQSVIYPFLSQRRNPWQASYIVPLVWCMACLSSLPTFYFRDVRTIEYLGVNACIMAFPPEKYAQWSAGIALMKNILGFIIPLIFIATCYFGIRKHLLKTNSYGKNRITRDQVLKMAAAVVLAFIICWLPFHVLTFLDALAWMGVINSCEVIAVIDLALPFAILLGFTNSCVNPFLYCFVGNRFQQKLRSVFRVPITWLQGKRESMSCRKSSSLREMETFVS
Dopamine D2L, sequence (P14416 whole entry): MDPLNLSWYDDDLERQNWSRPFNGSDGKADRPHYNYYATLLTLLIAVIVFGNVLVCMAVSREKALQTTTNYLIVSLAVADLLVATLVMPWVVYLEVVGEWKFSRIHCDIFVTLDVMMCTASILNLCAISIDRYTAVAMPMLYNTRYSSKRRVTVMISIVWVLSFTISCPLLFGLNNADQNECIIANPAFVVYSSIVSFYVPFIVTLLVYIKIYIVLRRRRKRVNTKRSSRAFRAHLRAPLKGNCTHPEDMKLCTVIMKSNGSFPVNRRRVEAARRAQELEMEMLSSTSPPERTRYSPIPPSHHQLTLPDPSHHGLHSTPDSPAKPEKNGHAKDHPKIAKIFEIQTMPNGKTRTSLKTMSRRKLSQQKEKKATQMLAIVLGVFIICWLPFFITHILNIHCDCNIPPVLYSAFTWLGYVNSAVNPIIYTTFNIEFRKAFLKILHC

## CCn1nc(C)c(-c2ccccc2O)c1-c1ccccc1 [Compound 103, 2-(1-Ethyl-3-methyl-5-phenyl-1H-pyrazol-4-yl)-phenol]
Edg-2 receptor
  inhibition of the Edg 2 receptor: specifically inhibited
  IC50: 0.51 µM
  Fold Selective: >39.3 Fold
Edg 1 receptor
  IC50: > 20 µM
  inhibition of S1P-stimulated calcium increases: did not inhibit
Edg-4 receptor
  IC50: > 20 µM
  inhibition of LPA-stimulated calcium increases: did not inhibit
Edg 8 receptor
  IC50: > 20 µM
  inhibition of S1P-stimulated calcium increases: did not inhibit
Edg-7 receptor
  IC50: > 20 µM
  inhibition of LPA-stimulated calcium increases: did not inhibit
Edg 5 receptor
  IC50: > 20 µM
  inhibition of S1P-stimulated calcium increases: did not inhibit
Edg 3 receptor
  IC50: > 20 µM
  inhibition of S1P-stimulated calcium increases: did not inhibit
[1]
  inhibition of LPA-stimulated calcium mobilization: almost completely inhibited
[2]
  activity at various targets tested, including other GPCRs, ion channels, and enzymes: did not demonstrate any significant activity
[3]
  reversal of the inhibitory effects of LPA on forskolin-stimulated cAMP production: reverses the inhibitory effects of LPA

## CCOc1ccccc1N1C(=O)CC(N(O)c2ccc(F)cc2)C1=O (centres unmarked) [Compound 111, 1-(2-Ethoxyphenyl)-3-[(4-fluorophenyl)hydroxylamino]pyrrolidine-2,5-dione]
other
  melting point: 123 to 124 °C

## CCOc1ccccc1N1C(=O)CC(N(O)c2ccccc2)C1=O (centres unmarked) [Compound 101, 1-(2-Ethoxyphenyl)-3-(hydroxyphenylamino)-pyrrolidine-2,5-dione]
Edg-2 receptor
  inhibition of the Edg 2 receptor: specifically inhibit
  IC50: 1.63 µM
  Fold Selective: >12.3 Fold
Edg 1 receptor
  IC50: > 20 µM
  inhibition of S1P-stimulated calcium increases: did not inhibit
Edg-4 receptor
  IC50: > 20 µM
  inhibition of LPA-stimulated calcium increases: did not inhibit
Edg 8 receptor
  IC50: > 20 µM
  inhibition of S1P-stimulated calcium increases: did not inhibit
Edg-7 receptor
  IC50: > 20 µM
  inhibition of LPA-stimulated calcium increases: did not inhibit
Edg 5 receptor
  IC50: > 20 µM
  inhibition of S1P-stimulated calcium increases: did not inhibit
Edg 3 receptor
  IC50: > 20 µM
  inhibition of S1P-stimulated calcium increases: did not inhibit
[2]
  activity at various targets tested, including other GPCRs, ion channels, and enzymes: did not demonstrate any significant activity
Histamine H1, Central
  activity in radioligand binding assay, H1 central: no significant activity
[4]
  activity in radioligand binding assay, Calcium Channels Type L, DHP: no significant activity
Dopamine D2L
  activity in radioligand binding assay, Dopamine D2L: no significant activity
[5]
  activity in radioligand binding assay, Serotonin 5HT1 non-selective: no significant activity
Adrenergic β
  activity in radioligand binding assay, Adrenergic Beta, non-selective: no significant activity
[6]
  activity in radioligand binding assay, Adrenergic Alpha 1, non-selective: no significant activity
[7]
  activity in radioligand binding assay, Muscarinic, non-selective, central: no significant activity
Angiotensin AT2
  activity in radioligand binding assay, Angiotensin AT2: no significant activity
Adrenergic α2
  activity in radioligand binding assay, Adrenergic Alpha 2, non-selective: no significant activity
Endothelin ETA
  activity in radioligand binding assay, Endothelin ETA: no significant activity

## O=C(CC(=O)C(F)(F)F)Nc1cc(-c2ccccc2)n[nH]1 [Compound 201, 4,4,4-trifluoro-3-oxo-N-(5-phenyl-2H-pyrazol-3-yl)-butyramide, reference compound]
[1]
  inhibition of LPA-stimulated calcium mobilization: little to no effect
[3]
  reversal of the inhibitory effects of LPA on forskolin-stimulated cAMP production: little to no effect
